Peptide text beside a SMILES is read from it. * marks the point of attachment. Palmitoyl = CCCCCCCCCCCCCCCC(=O)*
How the values were obtained:
VEGF-A production = test: Thrombin-dependent VEGF-A production in A549 cells (ELISA); assay type: cell-based, human; settings: A549, 18 hours thrombin treatment
Experimental: FIG. 13 illustrates that monotherapy with PAR1-i3 pepducins inhibits tumor progression of A549 xenografts. (A) and (B): A549 mice treated with vehicle, P1pal-7, P1pal-i1-11, P1pal-10S, X1/2-i1, X1/2-i3, or Avastin. Each time point represents the mean±SE. (C): Final tumor volume at the completion of the experiment was calculated as a percentage of untreated vehicle control. (D): Serum-starved A549 adenocarcinoma cells were pretreated with P1pal-7, P1pal-10S, P1pal-i1-11, vehicle, or PD98059 and stimulated with thrombin. VEGF production was assessed by enzyme-linked immunosorbent assay. Data are expressed as mean±SD (*P<0.05, **P<0.01).
Because the i3-based P1pal-7 pepducin had similar efficacy as Avastin in suppressing lung tumor growth of A549 xenografts, VEGF-A production was measured in the A549 tumor cells after 18 hours thrombin treatment. […] Unlike in ovarian cancer, no increase was found in PAR1-mediated IL-8 production in A549 cells, consistent with the observed lack of efficacy of CXCR1/2 pepducins in the A549 xenograft models. These xenograft data provide support for the role of a novel PAR1-ERK1/2-VEGF paracrine pathway that is an effective therapeutic target in the A549 adenocarcinoma lung cancer model.

[1] = tested on: A549, HOP62, and HOP92 lung carcinoma cell lines; test: Cytotoxicity/cell viability of lung carcinoma cells (MIT assay); assay type: cell-based, human; settings: 3-day period
PAR2 [2] = target: T1, PAR2 (Homo sapiens, UniProt P55085); test: Trypsin cleavage of PAR2; assay type: cell-based
Source text: Additionally, we tested whether P2pal-18S inhibited proteolytic cleavage of PAR2 or endocytosis (DeFea K A, et al. (2000) J Cell Biol 148: 1267-81; Roosterman D, et al. (2003) Am J Physiol Cell Physiol 284: C1319-29; Stalheim L, et al. (2005) Mol Pharmacol 67: 78-87). […] Therefore, the P2pal-18S i3 loop pepducin can inhibit PAR2-dependent calcium signaling, PLC-b inositol phosphate formation, and cell migration, but not proteolytic cleavage or endocytosis.

PAR2 [3] = target: T2, PAR2 (Mus musculus, UniProt P55086); test: Mast cell conditioned media-induced mouse paw edema; assay type: in vivo; design: from tissue; host or cells: living C57BL/6 mice, hindpaw; settings: 10 mg/kg
Experimental: (A) Mast cells were treated with 2 mg/mL of mast cell degranulating agent 48/80 or 2% 1-carrageenan/4% kaolin. […] (B) P2pal-18S inhibits human neutrophil chemotaxis (n=6) to mast cell media. Human neutrophils were incubated with […] P2pal-18S, or […] mast cell tryptase inhibitor APC-366 and allowed to migrate 30 min toward CM from mast cells. (C) C57BL/6 mice (n=5) were pretreated with the tryptase inhibitor APC-366 (5 mg/kg, s.c.) or vehicle (20% DMSO) and then challenged with intraplantar injection of 1-carrageenan/kaolin. (D) Mast cell conditioned media (30 μL of 1-carrageenan/kaolin stimulated media) was injected into the hindpaws of C57BL/6 mice treated with 10 mg/kg P2pal-18S or vehicle (n=5). Data represent mean±SEM. #, P=0.07, *, P<0.05 and **, P<0.005. (E) Mast cell-deficient mice have a significant reduction in 1-carrageenan/kaolin induced paw edema (8 h time point, n=4-6) as compared to littermate controls. Mast-cell deficient mice or littermate controls with intact mast cells were treated with P2pal-18S (10 mg/kg, s.c.) or vehicle and hind paws challenged with 1-carrageenan/kaolin irritant. Error bars represent mean±SEM.
To examine whether mast cells and mast cell tryptase were activating PAR2 in the paw edema model in vivo, mice were depleted of mast cells through pretreatment with compound 48/80 (Carvalho M et al. Eur J Pharmacol (2005), 525: 161-169). […]

PAR2 [4] = target: T2, PAR2; test: Mouse neutrophil chemotaxis to trypsin; assay type: cell-based; settings: 30 nM trypsin
Experimental: (A) Human neutrophils (n=4 normal volunteers) were analyzed for surface expression of human PAR1, PAR2, and PAR4 by flow cytometry with PAR-specific antibodies. […] Chemotaxis index is the ratio of directed versus random migration over 30 min through a 5-μm pore filter.
The ability of some pepducin embodiments of the invention to antagonize PAR2-dependent activity of human neutrophils was tested. Neutrophils were isolated from the peripheral blood of healthy human volunteers and found to express high levels of surface PAR2 and PAR4 and lower apparent levels of PAR1 by flow cytometry (FIG. 3A). […] As human PAR2 shares 85% identity with mouse PAR2 and the mouse i3 loop retains all of the critical pharmacophores identified in the human PAR2 i3 loop, cross-species inhibition with mouse cells was tested.

PAR2 [5] = target: T1, PAR2; test: PLC-b inositol phosphate formation, PAR2 (SLIGRL); assay type: cell-based; design: expressed in transfected cells; host or cells: COS7
Experimental: (A) PAR2 antagonist pepducins P2pal-18S and P2pal-14GQ inhibit calcium flux induced by PAR2 (SLIGRL) (SEQ ID NO:4) but not PAR1 (TFLLRN) (SEQ ID NO:2) agonists. SW620 cells were stably transfected with PAR1 and pretreated for 1 min with various concentrations of P2pal-18S or P2pal-14GQ and then stimulated with 30 μM PAR agonist. […] Cells were stimulated with 1 μM TFLLRN (SEQ ID NO:2), 1 μM SLIGRL (SEQ ID NO:4) or 100 μM AYPGKF (SEQ ID NO:5) and [^3H]-InsP formation measured over 30 min. (C) SW620 cells were treated with the indicated concentrations of P2pal-18S or P2pal-14GQ in the upper well of an 8-μm pore Boyden chamber and allowed to migrate for 18 h towards 10 μM of the PAR2 specific agonist SLIGRL in the lower chamber. The migration to RPMI/0.1% FBS represents random migration. (D) Migration of HEK cells transiently transfected with PAR2 (wild-type, WT), or PAR2-R36A/PAR2-RQ toward chemotactic gradients of 30 nM trypsin in the absence or presence of the indicated concentration of P2pal-18S for 18 h in a transwell apparatus ([…]). Data (n=2-4) are mean±SEM. *, P<0.05 and **, P<0.005.
Additionally, we tested whether P2pal-18S inhibited proteolytic cleavage of PAR2 or endocytosis (DeFea K A, et al. (2000) J Cell Biol 148: 1267-81; Roosterman D, et al. (2003) Am J Physiol Cell Physiol 284: C1319-29; Stalheim L, et al. (2005) Mol Pharmacol 67: 78-87). […]

T2 sequence (P55086 26-399): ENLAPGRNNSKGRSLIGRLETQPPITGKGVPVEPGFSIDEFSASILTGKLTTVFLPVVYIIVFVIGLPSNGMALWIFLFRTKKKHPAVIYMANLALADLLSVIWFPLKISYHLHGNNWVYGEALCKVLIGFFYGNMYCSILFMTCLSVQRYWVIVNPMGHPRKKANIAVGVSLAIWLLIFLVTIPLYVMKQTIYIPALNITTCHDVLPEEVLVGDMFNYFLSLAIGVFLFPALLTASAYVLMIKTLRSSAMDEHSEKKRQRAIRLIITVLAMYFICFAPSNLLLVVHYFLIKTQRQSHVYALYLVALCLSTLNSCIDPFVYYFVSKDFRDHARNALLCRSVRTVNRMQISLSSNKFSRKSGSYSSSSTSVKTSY
T1 sequence (P55085 26-397): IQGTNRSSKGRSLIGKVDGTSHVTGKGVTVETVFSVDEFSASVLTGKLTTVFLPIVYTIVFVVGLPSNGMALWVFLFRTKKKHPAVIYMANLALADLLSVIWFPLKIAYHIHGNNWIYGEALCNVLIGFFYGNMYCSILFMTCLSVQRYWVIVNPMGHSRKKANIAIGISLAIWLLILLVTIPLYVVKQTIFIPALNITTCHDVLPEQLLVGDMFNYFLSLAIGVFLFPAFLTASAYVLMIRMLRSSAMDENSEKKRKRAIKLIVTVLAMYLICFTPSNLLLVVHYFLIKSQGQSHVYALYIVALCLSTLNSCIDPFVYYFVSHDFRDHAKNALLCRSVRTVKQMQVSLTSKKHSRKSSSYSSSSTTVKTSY

In the case of `CCCCCCCCCCCCCCCC(=O)N[C@H](C(=O)N[C@@H](CC(C)C)C(=O)N[C@@H](CCCCN)C(=O)N[C@@H](CCSC)C(=O)N[C@@H](CCCCN)C(=O)N[C@H](C(=O)N[C@@H](CCCCN)C(=O)N[C@@H](CCCCN)C(=O)N1CCC[C@H]1C(=O)N[C@@H](C)C(=O)N[C@H](C(N)=O)C(C)C)C(C)C)[C@@H](C)CC` [P1pal-i1-11] (Palmitoyl-ILKMKVKKPAV-NH2), the “Effect on thrombin-dependent VEGF-A production” value (VEGF-A production) is reported as “did not inhibit” and the “Sensitivity of A549 cells (cytotoxicity)” value [1] is reported as “less sensitive”.

For `CCCCCCCCCCCCCCCC(=O)N[C@@H](CCCNC(=N)N)C(=O)N[C@@H](CO)C(=O)N[C@@H](CO)C(=O)N[C@@H](C)C(=O)N[C@@H](CCSC)C(=O)N[C@@H](CC(=O)O)C(=O)N[C@@H](CCC(=O)O)C(=O)N[C@@H](CC(N)=O)C(=O)N[C@@H](CO)C(=O)N[C@@H](CCC(=O)O)C(=O)N[C@@H](CCCCN)C(=O)N[C@@H](CCCCN)C(=O)N[C@@H](CCCNC(=N)N)C(=O)N[C@@H](CCCCN)C(=O)N[C@@H](CO)C(=O)N[C@@H](C)C(=O)N[C@H](C(=O)N[C@@H](CCCCN)C(N)=O)[C@@H](C)CC` [P2pal-18S], the “Effect on trypsin cleavage of PAR2” value (PAR2 [2]) was “no effect”, the “Decrease in peak development of edema” value (PAR2 [3]; at 4 h, mast cell media intraplantar) was 50% and the “Protection against edema at later times” value (PAR2 [3]; at 8 h and thereafter) was “complete protection”. For the same molecule, the “Inhibition of mouse neutrophil migration” value (PAR2 [4]) was “completely inhibited” and the “Inhibition of PAR2-dependent PLC-b inositol phosphate formation” value (PAR2 [5]) was “can inhibit”.

Reference: US10913781B2, “Pepducin design and use” (Tufts Medical Center, Inc., priority 2011, dated 2021)
